The results in this text go back to patent US8952157B2, “Apoptosis-inducing agents for the treatment of cancer and immune and autoimmune diseases” (AbbVie Inc., priority 2008, dated 2015).

SMILES strings stand for the structures. Where only a bound is given, the exact number is not on record here.

Chain of GST-Bcl-2 (P10415 whole entry): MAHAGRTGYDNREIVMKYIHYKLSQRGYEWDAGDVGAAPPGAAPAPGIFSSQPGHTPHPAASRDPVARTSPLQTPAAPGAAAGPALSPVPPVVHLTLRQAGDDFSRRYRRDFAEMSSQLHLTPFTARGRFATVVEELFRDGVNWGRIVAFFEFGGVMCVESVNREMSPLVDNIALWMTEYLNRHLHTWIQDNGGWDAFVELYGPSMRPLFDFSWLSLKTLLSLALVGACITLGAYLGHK

In this experiment the target is GST-Bcl-2 (Homo sapiens (Human), UniProt P10415). Kind of experiment: Time Resolved-Fluorescence Resonance Energy Transfer (TR-FRET) Bcl-2 binding assay. As to conditions: GST-Bcl-2 1 nM, F-Bak peptide probe 100 nM, Tb-anti-GST antibody 1 nM; Ki by Wang's equation. The method, boiled down:
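Competition TR-FRET: GST-Bcl-2 with fluorescent Bak peptide probe and Tb-anti-GST antibody, compounds serially diluted from 50 μM (2× start, 10% DMSO).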
(Time-resolved FRET reads energy transfer from a long-lived donor to a nearby acceptor.)
For `N#Cc1ccc(Oc2cc(N3CCN(Cc4ccccc4-c4ccc(Cl)cc4)CC3)ccc2C(=O)NS(=O)(=O)c2ccc(NCC3CCOCC3)c([N+](=O)[O-])c2)cc1` [Example 72, 4-(4-((4′-chloro-1,1′-biphenyl-2-yl)methyl)piperazin-1-yl)-2-(4-cyanophenoxy)-N-((3-nitro-4-((tetrahydro-2H-pyran-4-ylmethyl)amino)phenyl)sulfonyl)benzamide], the affinity, expressed as Ki, was 31.7 nM.

Regarding `O=C(NS(=O)(=O)c1ccc(NCC2CCOCC2)c([N+](=O)[O-])c1)c1ccc(N2CCN(Cc3ccccc3-c3ccc(Cl)cc3)CC2)cc1Oc1ccc2[nH]cc(CCC(=O)N3CCOCC3)c2c1` [Example 73, 4-(4-((4′-chloro-1,1′-biphenyl-2-yl)methyl)piperazin-1-yl)-2-((3-(3-morpholin-4-yl-3-oxopropyl)-1H-indol-5-yl)oxy)-N-((3-nitro-4-((tetrahydro-2H-pyran-4-ylmethyl)amino)phenyl)sulfonyl)benzamide], the inhibitory constant (Ki) came to 32.3 nM.

For `O=C(NS(=O)(=O)c1ccc(NCC2CCOCC2)c([N+](=O)[O-])c1)c1ccc(N2CCN(Cc3ccccc3-c3ccc(Cl)cc3)CC2)cc1Oc1ccc2[nH]cc(CCCN3CCOCC3)c2c1` [Example 74, 4-(4-((4′-chloro-1,1′-biphenyl-2-yl)methyl)piperazin-1-yl)-2-((3-(3-morpholin-4-ylpropyl)-1H-indol-5-yl)oxy)-N-((3-nitro-4-((tetrahydro-2H-pyran-4-ylmethyl)amino)phenyl)sulfonyl)benzamide], the Ki came to 189 nM.

As to `CN(C)Cc1ccc(Oc2cc(N3CCN(Cc4ccccc4-c4ccc(Cl)cc4)CC3)ccc2C(=O)NS(=O)(=O)c2ccc(NCC3CCOCC3)c([N+](=O)[O-])c2)cc1` [Example 75, 4-(4-((4′-chloro-1,1′-biphenyl-2-yl)methyl)piperazin-1-yl)-2-(4-((dimethylamino)methyl)phenoxy)-N-((3-nitro-4-((tetrahydro-2H-pyran-4-ylmethyl)amino)phenyl)sulfonyl)benzamide], the Ki was 76.8 nM.

As for `O=C(NS(=O)(=O)c1ccc(NCC2CCOCC2)c([N+](=O)[O-])c1)c1ccc(N2CCN(Cc3ccccc3-c3ccc(Cl)cc3)CC2)cc1Oc1ccc(-n2ccnc2)cc1` [Example 76, 4-(4-((4′-chloro-1,1′-biphenyl-2-yl)methyl)piperazin-1-yl)-2-(4-(1H-imidazol-1-yl)phenoxy)-N-((3-nitro-4-((tetrahydro-2H-pyran-4-ylmethyl)amino)phenyl)sulfonyl)benzamide], the inhibition constant (Ki) was determined as 240 nM. This Ki is about 3.1-fold higher than that of the molecule before.

In the case of `O=C(NS(=O)(=O)c1ccc(NCC2CCOCC2)cc1)c1ccc(N2CCN(Cc3ccccc3-c3ccc(Cl)cc3)CC2)cc1Oc1cccc([N+](=O)[O-])c1` [Example 77, 4-(4-((4′-chloro-1,1′-biphenyl-2-yl)methyl)piperazin-1-yl)-2-(3-nitrophenoxy)-N-((4-((tetrahydro-2H-pyran-4-ylmethyl)amino)phenyl)sulfonyl)benzamide], the inhibitory constant (Ki) was determined as 451 nM. This Ki lies about 1.9-fold higher than the previous one.

`CCN(Cc1ccc(Oc2cc(N3CCN(Cc4ccccc4-c4ccc(Cl)cc4)CC3)ccc2C(=O)NS(=O)(=O)c2ccc(NCC3CCOCC3)c([N+](=O)[O-])c2)cc1)C(=O)OC(C)(C)C` [Example 78, tert-butyl 4-(5-(4-((4′-chloro-1,1′-biphenyl-2-yl)methyl)piperazin-1-yl)-2-((((3-nitro-4((tetrahydro-2H-pyran-4-ylmethyl)amino)phenyl)sulfonyl)amino)carbonyl)phenoxy)benzyl(ethyl)carbamate] registered a Ki above 1200 nM.

For the molecule `CCN(Cc1cccc(Oc2cc(N3CCN(Cc4ccccc4-c4ccc(Cl)cc4)CC3)ccc2C(=O)NS(=O)(=O)c2ccc(NCC3CCOCC3)c([N+](=O)[O-])c2)c1)C(=O)OC(C)(C)C` [Example 79, tert-butyl 3-(5-(4-((4′-chloro-1,1′-biphenyl-2-yl)methyl)piperazin-1-yl)-2-((((3-nitro-4-((tetrahydro-2H-pyran-4-ylmethyl)amino)phenyl)sulfonyl)amino)carbonyl)phenoxy)benzyl(ethyl)carbamate], the inhibition constant (Ki) came to 99.8 nM. In other words, the double-digit nanomolar range.

`CCNCc1cccc(Oc2cc(N3CCN(Cc4ccccc4-c4ccc(Cl)cc4)CC3)ccc2C(=O)NS(=O)(=O)c2ccc(NCC3CCOCC3)c([N+](=O)[O-])c2)c1` [Example 81, 4-(4-((4′-chloro-1,1′-biphenyl-2-yl)methyl)piperazin-1-yl)-2-(3-((ethylamino)methyl)phenoxy)-N-((3-nitro-4-((tetrahydro-2H-pyran-4-ylmethyl)amino)phenyl)sulfonyl)benzamide]: affinity was put at a Ki of 31 nM.

In the case of `CC(=O)Nc1ccc(Oc2cc(N3CCN(Cc4ccccc4-c4ccc(Cl)cc4)CC3)ccc2C(=O)NS(=O)(=O)c2ccc(NCC3CCOCC3)c([N+](=O)[O-])c2)cc1` [Example 82, 2-(4-(acetylamino)phenoxy)-4-(4-((4′-chloro-1,1′-biphenyl-2-yl)methyl)piperazin-1-yl)-N-((3-nitro-4-((tetrahydro-2H-pyran-4-ylmethyl)amino)phenyl)sulfonyl)benzamide], the Ki was 512 nM. This Ki lies about 17-fold higher than the previous one.

`CC(C)(C)OC(=O)Nc1ccc(Oc2cc(N3CCN(Cc4ccccc4-c4ccc(Cl)cc4)CC3)ccc2C(=O)NS(=O)(=O)c2ccc(NCC3CCOCC3)c([N+](=O)[O-])c2)cc1` [Example 83, tert-butyl 4-(5-(4-((4′-chloro-1,1′-biphenyl-2-yl)methyl)piperazin-1-yl)-2-((((3-nitro-4-((tetrahydro-2H-pyran-4-ylmethyl)amino)phenyl)sulfonyl)amino)carbonyl)phenoxy)phenylcarbamate] had a Ki above 1200 nM.

`O=C(NS(=O)(=O)c1ccc(NCC2CCOCC2)c([N+](=O)[O-])c1)c1ccc(N2CCN(Cc3ccccc3-c3ccc(Cl)cc3)CC2)cc1Oc1ccccc1-c1ccccc1` [Example 84, 2-(1,1′-biphenyl-2-yloxy)-4-(4-((4′-chloro-1,1′-biphenyl-2-yl)methyl)piperazin-1-yl)-N-((3-nitro-4-((tetrahydro-2H-pyran-4-ylmethyl)amino)phenyl)sulfonyl)benzamide] returned a Ki of 13.7 nM.

`CC(C)(C)OC(=O)Nc1cccc(Oc2cc(N3CCN(Cc4ccccc4-c4ccc(Cl)cc4)CC3)ccc2C(=O)NS(=O)(=O)c2ccc(NCC3CCOCC3)c([N+](=O)[O-])c2)c1` [Example 85, tert-butyl 3-(5-(4-((4′-chloro-1,1′-biphenyl-2-yl)methyl)piperazin-1-yl)-2-((((3-nitro-4-((tetrahydro-2H-pyran-4-ylmethyl)amino)phenyl)sulfonyl)amino)carbonyl)phenoxy)phenylcarbamate] showed a Ki of 5.63 nM.

As to `O=C(NS(=O)(=O)c1ccc(NCC2CCOCC2)c([N+](=O)[O-])c1)c1ccc(N2CCN(Cc3ccccc3-c3ccc(Cl)cc3)CC2)cc1Oc1cccc(-c2ccccc2)c1` [Example 86, 2-(1,1′-biphenyl-3-yloxy)-4-(4-((4′-chloro-1,1′-biphenyl-2-yl)methyl)piperazin-1-yl)-N-((3-nitro-4-((tetrahydro-2H-pyran-4-ylmethyl)amino)phenyl)sulfonyl)benzamide], the affinity corresponds to a Ki of 5.26 nM.

Take `CN(C)CCc1ccc(Oc2cc(N3CCN(Cc4ccccc4-c4ccc(Cl)cc4)CC3)ccc2C(=O)NS(=O)(=O)c2ccc(NCC3CCOCC3)c([N+](=O)[O-])c2)cc1` [Example 87, 4-(4-((4′-chloro-1,1′-biphenyl-2-yl)methyl)piperazin-1-yl)-2-(4-(2-(dimethylamino)ethyl)phenoxy)-N-((3-nitro-4-((tetrahydro-2H-pyran-4-ylmethyl)amino)phenyl)sulfonyl)benzamide]: the Ki was 264 nM. This Ki is about 50-fold higher than that of the molecule before.

`O=C(NS(=O)(=O)c1ccc(NCC2CCOCC2)c([N+](=O)[O-])c1)c1ccc(N2CCN(Cc3ccccc3-c3ccc(Cl)cc3)CC2)cc1Oc1ccc(OCc2ccccc2)cc1` [Example 88, 2-(4-(benzyloxy)phenoxy)-4-(4-((4′-chloro-1,1′-biphenyl-2-yl)methyl)piperazin-1-yl)-N-((3-nitro-4-((tetrahydro-2H-pyran-4-ylmethyl)amino)phenyl)sulfonyl)benzamide] had an inhibition constant (Ki) above 1200 nM.

As to `O=C(NS(=O)(=O)c1ccc(NCC2CCOCC2)c([N+](=O)[O-])c1)c1ccc(N2CCN(Cc3ccccc3-c3ccc(Cl)cc3)CC2)cc1Oc1cccc(N2CCOCC2)c1` [Example 89, 4-(4-((4′-chloro-1,1′-biphenyl-2-yl)methyl)piperazin-1-yl)-2-(3-morpholin-4-ylphenoxy)-N-((3-nitro-4-((tetrahydro-2H-pyran-4-ylmethyl)amino)phenyl)sulfonyl)benzamide], the Ki was found to be 6.11 nM.

On to `Cc1nc2cc(Oc3cc(N4CCN(Cc5ccccc5-c5ccc(Cl)cc5)CC4)ccc3C(=O)NS(=O)(=O)c3ccc(NCC4CCOCC4)c([N+](=O)[O-])c3)ccc2s1` [Example 90, 4-(4-((4′-chloro-1,1′-biphenyl-2-yl)methyl)piperazin-1-yl)-2-((2-methyl-1,3-benzothiazol-5-yl)oxy)-N-((3-nitro-4-((tetrahydro-2H-pyran-4-ylmethyl)amino)phenyl)sulfonyl)benzamide], for which the inhibition constant (Ki) was 10.6 nM. This Ki is about 1.7-fold higher than that of the molecule before.

As for `CC(C)(C)OC(=O)N1CCN(c2cccc(Oc3cc(N4CCN(Cc5ccccc5-c5ccc(Cl)cc5)CC4)ccc3C(=O)NS(=O)(=O)c3ccc(NCC4CCOCC4)c([N+](=O)[O-])c3)c2)CC1` [Example 91, tert-butyl 4-(3-(5-(4-((4′-chloro-1,1′-biphenyl-2-yl)methyl)piperazin-1-yl)-2-((((3-nitro-4-((tetrahydro-2H-pyran-4-ylmethyl)amino)phenyl)sulfonyl)amino)carbonyl)phenoxy)phenyl)piperazine-1-carboxylate], the Ki is above 1200 nM.

In the case of `CN(C)CCCNc1ccc(S(=O)(=O)NC(=O)c2ccc(N3CCN(Cc4ccccc4-c4ccc(Cl)cc4)CC3)cc2Oc2cccc(OCc3ccccc3)c2)cc1[N+](=O)[O-]` [Example 92, 2-(3-(benzyloxy)phenoxy)-4-(4-((4′-chloro-1,1′-biphenyl-2-yl)methyl)piperazin-1-yl)-N-((4-((3-(dimethylamino)propyl)amino)-3-nitrophenyl)sulfonyl)benzamide], the Ki is 2.57 nM.

As usually defined, the Ki is a measure of affinity in units of concentration, obtained from inhibition or displacement. Higher therefore signals a looser hold on the target.
